These results are taken from patent publication EP4574811A1, “CRYSTALLINE FORMS OF ELACESTRANT DIHYDROCHLORIDE” (SANDOZ AG, priority 2023, dated 2025).

Counter-ions that a name gives are not always drawn.

The nature of this data set: Dissolution testing (aqueous solubility in water at 24°C). The class given is physicochemical. Particulars: dihydrochloride; for Aqueous solubility (concentration of clear solution): in water at 24 °C; for stability of the supersaturated solution: 51.9 mg/ml solution in water at 24 °C. How it is done: Aqueous solubility was determined dissolution experiments of Elacestrant dihydrochloride of the present invention in water at 24°C.

As to `CCNCCc1ccc(CN(CC)c2cc(OC)ccc2[C@@H]2CCc3cc(O)ccc3C2)cc1` [Form 1, (6R)-6-(2-(ethyl((4-(2-(ethylamino)ethyl)phenyl)-methylamino)-4-methoxyphenyl)-5,6,7,8-Tetrahydronaphthalen-2-oldihydrochloride, reference compound], the “Aqueous solubility (concentration of clear solution)” value (“Aqueous solubility” for short) is “less than 9,2 mg/ml”.

With `CCNCCc1ccc(CN(CC)c2cc(OC)ccc2[C@@H]2CCc3cc(O)ccc3C2)cc1` [Form A, (6R)-6-(2-(ethyl((4-(2-(ethylamino)ethyl)phenyl)-methylamino)-4-methoxyphenyl)-5,6,7,8-Tetrahydronaphthalen-2-oldihydrochloride], the “Aqueous solubility” value is recorded as 34,5 mg/ml. Further, the “Aqueous solubility” value (listed as form A) is recorded as “about 34.5 mg/ml”.

For the compound `CCNCCc1ccc(CN(CC)c2cc(OC)ccc2[C@@H]2CCc3cc(O)ccc3C2)cc1` [Form B, (6R)-6-(2-(ethyl((4-(2-(ethylamino)ethyl)phenyl)-methylamino)-4-methoxyphenyl)-5,6,7,8-Tetrahydronaphthalen-2-oldihydrochloride], the “stability of the supersaturated solution” value was “instable” and the “Aqueous solubility” value turned out to be 51.9 mg/mL. Besides, the “stability of the supersaturated solution” value (listed as form B) was “precipitation of Elacestrant dihydrochloride was occurred”.
